Measurements taken from patent US20200397795A1, “PROPHYLACTIC TREATMENT OF VENOUS THROMBOEMBOLISM” (JANSSEN PHARMACEUTICALS, INC., priority 2019, published 2020).

Columns and labels:
[1] = system: coagulation parameters (PT, PiCT, D-dimer); assay: MAGELLAN (Study 1): pharmacodynamics (PT, PiCT, D-dimer); type: in vivo, human; settings: for Prothrombin time, overall median: full profile sampling
Procedure: Full profile pharmacodynamics (PD) sampling was performed in parallel to the PK samples on Day 1 and Day 10. In addition, sparse PD sampling was performed in nearly all subjects at 5 predefined time points: prior to study drug administration, around the time of peak plasma concentrations (2 to 4 hours after intake of the rivaroxaban tablet or rivaroxaban placebo tablet) on the first, 10th and 35th day of study drug administration, and before study drug administration on Day 10.
Coagulation parameters assessed included international normalized ratio (INR), prothrombin time (PT), prothrombinase-induced clotting time (PiCT), and the fibrin degradation product, D-dimer. Pharmacodynamic parameters assessed included changes to baseline of the maximal effect (Emax) and changes to baseline at trough (Etrough).
Two sets of samples were evaluated for PD parameters: Full profile PD sampling in parallel to the PK samples on Day 1 and Day 10. In addition, sparse PD sampling in nearly all subjects at 5 predefined time points: prior to study drug administration, approximately the time of peak plasma concentrations (2 to 4 hours after intake of the rivaroxaban tablet or rivaroxaban placebo tablet) on the first, 10th and 35th day of study drug administration, and before study drug administration on Day 10.

[2] = system: venous thromboembolism (VTE) in MAGELLAN subpopulation; assay: Retrospective analysis of MAGELLAN subpopulation (five bleeding risk factors excluded): efficacy; type: in vivo, human; settings: for Primary efficacy endpoint outcome, incidence: Day 10, per-protocol analysis set; for Asymptomatic lower extremity proximal DVT, incidence / VTE-related death, incidence: Day 35
Excerpt: Using key exclusion criteria from Study 2: MARINER to exclude subjects with a higher risk of bleeding, a subpopulation of Study 1: MAGELLAN was retrospectively analyzed to re-evaluate benefit-risk in this subpopulation, which included efficacy endpoints of symptomatic VTE and VTE-related death and safety endpoints of major bleeding events. The key exclusion criteria from Study 2: MARINER that were retrospectively applied to the Study 1: MAGELLAN population for this analysis included: active gastroduodenal ulcer within 3 months of randomization/currently symptomatic; any bleeding within 3 months prior to randomization or during index hospitalization; active cancer at randomization; medical history of severe bronchiectasis/pulmonary cavitation; or dual antiplatelet therapy at baseline. Subjects that met one or more of these criteria prior to or at randomization using standardized MedDRA queries or preferred terms of MedDRA version 13.1 based on data entered into the case report forms in the original MAGELLAN database were excluded from the subpopulation analysis.
The MAGELLAN study (Study 1) randomized 8,101 patients from 562 sites in 52 countries and the safety population of patients that received at least one dose of study medication was 7,998 patients. The five key risk factors for major bleeding events in MAGELLAN were identified using study data forms as described herein. With the retrospective use of these risk factors, 1,551 patients were excluded from MAGELLAN and the remaining 6,447 patients, approximately 80% of MAGELLAN, represented the subpopulation. Patients in both treatment groups had no differences in baseline characteristics, and had similar medical histories, with at least 99% of patients having complete immobility or decreased mobility and median total number of days in hospital of 10.

[3] = system: events prevented vs bleeding events caused; assay: MARINER benefit-risk analysis (excess number of events per 10,000 subjects); type: in vivo, human
Procedure: The benefit-risk of rivaroxaban versus placebo was evaluated based on the excess number of events between treatments for events intended to be prevented (benefits) and events that were caused (risks).
Although the primary efficacy endpoint was not statistically different between rivaroxaban and placebo, the benefit-risk analyses were conducted to further assess the totality of the data. Based on the ITT analysis set and Up-to-Day 45 analysis phase, for 10,000 subjects treated with rivaroxaban up to 45 days, on average, rivaroxaban would prevent 27 events of the composite of symptomatic VTE and VTE-related death, while causing 12 more major bleeding events than with placebo. […] Therefore, focusing instead on major thrombotic events that were fatal or caused potentially irreversible harm, on average, rivaroxaban would prevent 55 events of the composite of nonfatal PE, MI, non-hemorrhagic stroke, and non-hemorrhagic ACM, while causing 2 more events of the composite of critical site bleeding and fatal bleeding than with placebo.

[4] = system: bleeding events in high-risk, medically ill subjects; settings: human, in vivo
Excerpt: The safety objectives were to compare rivaroxaban with placebo in the following bleeding outcomes in high-risk, medically ill subjects: • Major bleeding using validated International Society on Thrombosis and Haemostasis (ISTH) bleeding criteria. • Non-major clinically relevant (NMCR) bleeding. • Other bleeding.
Safety assessment was based on bleeding events classified by validated ISTH criteria as major bleeding (principal safety outcome), NMCR bleeding, or Other bleeding. […] The safety outcome of NMCR bleeding was defined as overt bleeding not meeting ISTH criteria for major bleeding, but associated with medical intervention, unscheduled contact (visit or telephone call) with a physician, (temporary) cessation of study treatment, or associated with discomfort for the subject such as pain or impairment of activities of daily life. […] Overall safety was also assessed.
The principal safety outcome was major bleeding based on validated ISTH criteria. Treatments were compared using the same statistical model (i.e., Cox proportional hazards model) as that for the primary efficacy outcome. The same analyses were used for NMCR bleeding. Safety analyses were based on the safety analysis set and on-treatment analysis phase. Bleeding events were analyzed based on time from randomization to the first occurrence.

[5] = acute respiratory insufficiency, Baseline
[6] = acute respiratory insufficiency, Day 1 peak
[7] = acute respiratory insufficiency, Day 10 peak
[8] = acute respiratory insufficiency, Day 10 trough
[9] = entire study population, Baseline
[10] = entire study population, Day 1 peak
[11] = entire study population, Day 10 peak
[12] = entire study population, Day 35 peak
[13] = 10 mg dose stratum, for 10,000 subjects
[14] = for 10,000 subjects treated up to 45 days

## Enoxaparin
[1]; Day 1
  Baseline value expressed in IU/mL (PiCT two step): below the lower limit of quantitation
  Mean peak concentration expressed in IU/mL (PiCT two step): 0.32 IU/mL
[1]; Day 10
  Mean peak concentration expressed in IU/mL (PiCT two step): 0.31 IU/mL
  Trough concentration expressed in IU/mL (PiCT two step): 0.11 IU/mL
[1]; [5]
  D-dimer, median: 0.57 µg/mL
[1]; [6]
  D-dimer, median: 0.66 µg/mL
[1]; [7]
  D-dimer, median: 0.70 µg/mL
[1]; [8]
  D-dimer, median: 0.46 µg/mL
[1]; [9]
  D-dimer, median: 0.95 µg/mL
[1]; [10]
  D-dimer, median: 0.94 µg/mL
[1]; [11]
  D-dimer, median: 0.66 µg/mL
[1]; [12]
  D-dimer, median: 0.67 µg/mL
[1]; in vivo
  Influence on prothrombin time: no influence
[1]; sparse sampling
  Change in clotting time, PiCT one step: No change
[1]; sparse sampling, Baseline
  Prothrombin time, median: 14.4 s
[1]; sparse sampling, Day 1
  Prolongation of PiCT two step assay: 23.6 s
[1]; sparse sampling, Day 1 peak
  Prothrombin time, median: 14.8 s
[1]; sparse sampling, Day 10
  Prolongation of PiCT two step assay: 19.8 s
[1]; sparse sampling, Day 10 peak
  Prothrombin time, median: 14.2 s
[1]; sparse sampling, Day 35 peak
  Prothrombin time, median: 13.8 s
[2]
  Primary efficacy endpoint outcome, incidence: 3.0%
  Asymptomatic lower extremity proximal DVT, incidence: 4.4%
  VTE-related death, incidence: 1.0%
[2]; Day 35, mITT
  Primary efficacy outcome, incidence: 5.7%

## O=C(NC[C@H]1CN(c2ccc(N3CCOCC3=O)cc2)C(=O)O1)c1ccc(Cl)s1 [Rivaroxaban, 5-chloro-N-({(5S)-2-oxo-3-[4-(3-oxo-4-morpholinyl)phenyl]-1,3,oxazolidin-5-yl}methyl)-2-thiophenecarboxamide]
[1]; Day 1
  Mean peak concentration expressed in IU/mL (PiCT two step): below the lower limit of quantitation
  Mean peak concentration of rivaroxaban (PiCT one step): 198.8 µg/L
[1]; Day 10
  Mean peak concentration expressed in IU/mL (PiCT two step): below the lower limit of quantitation
  Mean peak concentration of rivaroxaban (PiCT one step): 202.78 µg/L
[1]; Day 35
  Mean peak concentration of rivaroxaban (PiCT one step): 168 µg/L
[1]; acute infectious disease, Baseline
  D-dimer, median: 1.76 µg/mL
[1]; acute infectious disease, Day 1 peak
  D-dimer, median: 2.07 µg/mL
[1]; acute infectious disease, Day 10 peak
  D-dimer, median: 2.13 µg/mL
[1]; acute infectious disease, Day 10 trough
  D-dimer, median: 1.74 µg/mL
[1]; [5]
  D-dimer, median: 1.48 µg/mL
[1]; [6]
  D-dimer, median: 1.44 µg/mL
[1]; [7]
  D-dimer, median: 1.37 µg/mL
[1]; [8]
  D-dimer, median: 1.18 µg/mL
[1]; [9]
  D-dimer, median: 0.94 µg/mL
[1]; [10]
  D-dimer, median: 0.90 µg/mL
[1]; [11]
  D-dimer, median: 0.64 µg/mL
[1]; [12]
  D-dimer, median: 0.45 µg/mL
[1]; peak Day 1
  Prothrombin time, overall median: 23.5 s
[1]; peak Day 10
  Prothrombin time, overall median: 23.2 s
[1]; sparse sampling
  Change in clotting time, PiCT two step: No change
[1]; sparse sampling, Baseline
  Prothrombin time, median: 14.3 s
[1]; sparse sampling, Day 1
  Prolongation of PiCT one step assay: 14.6 s
[1]; sparse sampling, Day 1 peak
  Prothrombin time, median: 19.3 s
[1]; sparse sampling, Day 10
  Prolongation of PiCT one step assay: 13.1 s
[1]; sparse sampling, Day 10 peak
  Prothrombin time, median: 19.3 s
[1]; sparse sampling, Day 35 peak
  Prothrombin time, median: 18.6 s
[2]; Day 10, per-protocol
  Primary efficacy endpoint, RR vs enoxaparin: 0.820
[2]
  Primary efficacy endpoint outcome, incidence: 2.4%
  Asymptomatic lower extremity proximal DVT, incidence: 3.0%
  VTE-related death, incidence: 0.6%
[2]; Day 35, mITT
  Primary efficacy outcome, RR vs enoxaparin: 0.68
  Primary efficacy outcome, incidence: 3.9%
[3]; 10 mg dose stratum
  Additional critical site and fatal bleeding vs placebo: no additional
[3]; [13]
  Events of composite of nonfatal PE, MI, non-hemorrhagic stroke, non-hemorrhagic ACM prevented vs placebo: 63 events
  Events of composite of symptomatic VTE and VTE-related death prevented vs placebo: 33 events
[3]; [14]
  Events of composite of nonfatal PE, MI, non-hemorrhagic stroke, non-hemorrhagic ACM prevented vs placebo: 55 events
  More events of composite of critical site bleeding and fatal bleeding than with placebo: 2 events
[3]; for 10,000 subjects treated up to 45 days, ITT
  Events of composite of symptomatic VTE and VTE-related death prevented vs placebo: 27 events
[3]; human, in vivo
  More major bleeding events caused than with placebo: 12 events
[4]
  AEs with onset >2 days from stop of study drug, n (%): 419 (7.0) %
[4]; 45 days
  Any AEs, n (%): 1438 (24.0) %
  Discontinued study drug permanently because of NMCR bleeding: 0.7%
  Discontinued study drug permanently due to bleeding: 1.1%
  Major and NMCR bleeding, event rate: 1.71 100 pt-45 dy
  Major bleeding at a critical site, incidence: 0.05%
  Major bleeding, event rate: 0.28 100 pt-45 dy
  NMCR bleeding, event rate: 1.43 100 pt-45 dy
  Other bleeding, event rate: 0.91 100 pt-45 dy
  Post-baseline AEs, n (%): 1430 (23.9) %
  Post-baseline SAEs, n (%): 465 (7.8) %
  SAEs with onset >2 days from stop of study drug, n (%): 169 (2.8) %
  SAEs, n (%): 460 (7.8) %
  TEAE COPD: 1.3%
  TEAE diarrhoea: 1.1%
  TEAE headache: 1.6%
  TEAEs, n (%): 1198 (20.0) %
  TESAEs, n (%): 337 (5.6) %
